The text below walks through data of US5547978A, “Derivatives of pyrrolidin-2-ylcarbonylheterocyclic compounds” (priority 1994, dated 1996).

For the experiment, the target named is T1, prolyl endopeptidase (Sus scrofa, UniProt P23687).
T1 construct: porcine kidney enzyme which was prepared according to methods of Walter and Yoshimoto et al; from tissue; host or cells: porcine kidney
Put plainly: Prolyl endopeptidase-inhibitory activity in vitro (porcine kidney enzyme, Z-Gly-Pro-p-nitroanilide substrate). In kind it is biochemical. As for the experimental part: A test compound (2 mg) was dissolved in DMSO (2 ml) and diluted to appropriate concentrations with DMSO. Z-Gly-Pro-p-nitroanilide (8 mg), a substrate was dissolved in dioxane (5 ml), water (27 ml) and 0.2 M phosphate buffer (pH 7.8, 40 ml). The substrate solution ([…]) was mixed with an inhibitor solution (3 ml) and followed by addition of above mentioned porcine kidney enzyme solution ([…]). Immediately after the mixing the UV absorbance at 405 nm was detected. The mixture was incubated at 37° C. for 20 min. and the UV absorbance was checked. A standard curve of absorbance (OD) vs. p-nitroaniline concentration was used to relate the absorbance to amount of substrate hydrolyzed. […] The inhibiting activity was obtained following the equation below. The IC50 value was estimated from the inhibitor concentration vs. inhibitory activity curve.
The percent inhibitory activity (%)=(ΔODc -ΔODs)/ΔODc ×100
ΔODs : ΔOD for test sample

The mark [1] stands for this setting: porcine kidney enzyme, pH 7.8, 37° C., 20 min, read-out: IC50 (converted).
Where [2] appears, read: porcine kidney enzyme, pH 7.8, 37° C., 20 min.

Like-named read-outs stand apart in the source and are kept apart here.

T1 sequence (P23687 whole entry): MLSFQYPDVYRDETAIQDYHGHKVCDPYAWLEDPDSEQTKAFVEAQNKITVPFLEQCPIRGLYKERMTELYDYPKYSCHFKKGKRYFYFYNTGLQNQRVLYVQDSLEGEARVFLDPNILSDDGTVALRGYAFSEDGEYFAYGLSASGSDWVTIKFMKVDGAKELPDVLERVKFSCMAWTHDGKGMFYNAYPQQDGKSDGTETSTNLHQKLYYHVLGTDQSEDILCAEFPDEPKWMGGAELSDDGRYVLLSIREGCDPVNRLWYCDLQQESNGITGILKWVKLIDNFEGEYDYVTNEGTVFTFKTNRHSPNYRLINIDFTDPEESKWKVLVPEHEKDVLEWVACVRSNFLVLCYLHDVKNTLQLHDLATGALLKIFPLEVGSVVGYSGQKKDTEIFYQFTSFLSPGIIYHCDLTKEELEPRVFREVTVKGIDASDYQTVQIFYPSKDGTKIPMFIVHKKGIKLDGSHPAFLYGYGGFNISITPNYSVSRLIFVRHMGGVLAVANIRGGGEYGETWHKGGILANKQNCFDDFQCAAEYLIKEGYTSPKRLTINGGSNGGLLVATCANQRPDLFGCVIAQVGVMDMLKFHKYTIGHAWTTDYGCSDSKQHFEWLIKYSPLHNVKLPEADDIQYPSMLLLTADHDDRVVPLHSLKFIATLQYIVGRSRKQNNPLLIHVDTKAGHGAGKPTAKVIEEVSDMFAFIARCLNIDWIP

Broadly, the IC50 is the midpoint of a concentration-inhibition curve. `O=C(c1nc[nH]n1)[C@@H]1CCCN1C(=O)[C@@H]1CCCN1C(=O)CCCc1ccccc1` [Example 34, 3-[1-{1-(4-Phenylbutanoyl)pyrrolidin-2(S)-ylcarbonyl}pyrrolidin-2(S)-ylcarbonyl]1,2,4-triazole] had a concentration for half-maximal inhibition (IC50) of 6.11 nM.
`O=C(c1nc2ccccc2[nH]1)[C@@H]1CCCN1C(=O)[C@@H]1CCCN1C(=O)CCCc1ccccc1` [Example 29, 2-[1-{1-(4-Phenylbutanoyl)pyrrolidin-2(S)-ylcarbonyl}pyrrolidin-2(S)-ylcarbonyl]-1H-benzimidazole] had an IC50 of 3.82 nM.
With `O=C(c1ncc[nH]1)[C@@H]1CCCN1C(=O)[C@@H]1CCCN1C(=O)CCCc1ccccc1` [Example 28, 2-[1-{1-(4-Phenylbutanoyl)pyrrolidin-2(S)-ylcarbonyl}pyrrolidin-2(S)-ylcarbonyl]-1H-imidazole], under setting [1], the IC50 was 6.24 nM.
`O=C(c1cncnc1)[C@@H]1CCCN1C(=O)[C@@H]1CCCN1C(=O)CCCc1ccccc1` [Example 31, 5-[1-{1-(4-Phenylbutanoyl)pyrrolidin-2(S)-ylcarbonyl}pyrrolidin-2(S)-ylcarbonyl]pyrimidine] had a 50% inhibitory concentration (IC50) of 64.2 nM.
`O=C(c1cccs1)[C@@H]1CCCN1C(=O)[C@@H]1CCCN1C(=O)CCCc1ccccc1` [Example 26, 2-[1-{1-(4-Phenylbutanoyl)pyrrolidin-2(S)-ylcarbonyl}pyrrolidin-2(S)-ylcarbonyl]thiophene] came in with an IC50 under setting [2] of 810 ng/mL.
The molecule `O=C(c1cccnc1)[C@@H]1CCCN1C(=O)[C@@H]1CCCN1C(=O)CCCc1ccccc1` [Example 30, 3-[1-{1-(4-Phenylbutanoyl)pyrrolidin-2(S)-ylcarbonyl}pyrrolidin-2(S)-ylcarbonyl]pyridine] showed an IC50 of 2620 nM.
The same measure, in the same setting: the same measure for `O=C(c1nccs1)[C@@H]1CCCN1C(=O)[C@@H]1Cc2ccccc2N1C(=O)OCc1ccccc1` [Example 8, 2-{1-(1-Benzyloxycarbonylindolin-2(S)-ylcarbonyl)pyrrolidin-2(S)-ylcarbonyl}thiazole]: 3.68 nM; for `O=C(c1nc2ncccc2[nH]1)[C@@H]1CCCN1C(=O)[C@@H]1CCCN1C(=O)CCCc1ccccc1` [Example 38, 2-[1-{1-(4-Phenylbutanoyl)pyrrolidin-2(S)-ylcarbonyl}pyrrolidin-2(S)-ylcarbonyl]imidazo[4,5-b]pyridine]: 6.09 nM; for `O=C(c1nccs1)[C@@H]1CCCN1C(=O)[C@@H]1CC2CCCCC2N1C(=O)CCCc1ccccc1` (stereo partly drawn) [Example 7, 2-[1-{1-(4-Phenylbutanoyl)octahydroindol-2(S)-ylcarbonyl}pyrrolidin-2(S)-ylcarbonyl]thiazole]: 2.4 nM.
Regarding `O=C(c1nccs1)[C@@H]1CCCN1C(=O)[C@@H]1C[C@@H](Sc2ccccc2)CN1C(=O)CCCc1ccccc1` [Example 10, 2-[1-{1-(4-Phenylbutanoyl)-4(R)-phenylthiopyrrolidin-2(S)-ylcarbonyl}-pyrrolidin-2(S)-ylcarbonyl]thiazole], the 50% inhibitory concentration (IC50) was 1.12 nM.
As for `O=C(c1cocn1)[C@@H]1CCCN1C(=O)[C@@H]1Cc2ccccc2N1C(=O)OCc1ccccc1` [Example 3, 4-{1-(1-Benzyloxycarbonylindolin-2(S)-ylcarbonyl)pyrrolidin2(S) -ylcarbonyl}oxazole], the IC50 was 9.54 nM.
Consider `O=C(C1=NCCS1)[C@@H]1CCCN1C(=O)[C@@H]1CCCN1C(=O)CCCc1ccccc1` [Example 41, 2-[1-{1-(4-Phenylbutanoyl)pyrrolidin-2(S)-ylcarbonyl}pyrrolidin-2(S)-ylcarbonyl]thiazoline], for which the concentration for half-maximal inhibition (IC50) was 3.98 nM.
`O=C(c1nccs1)[C@@H]1CCCN1C(=O)[C@@H]1CC2CCCCC2N1C(=O)OCc1ccccc1` (stereo partly drawn) [Example 6, 2-{1(1-Benzyloxycarbonyloctahydroindol-2(S)-ylcarbonyl)pyrrolidin-2(S)ylcarbonyl}thiazole]: the IC50 was 4.28 nM.
“2-[1-{1-(4-Phenylbutanoyl)pyrrolidin-2(S)-ylcarbonyl}pyrrolidin-2(S)-ylcarbonyl]oxazole [Example 23]” returned an IC50 under setting [2] of 3.20 ng/mL.
Regarding “2-[1-{1-(4-Phenylbutanoyl)pyrrolidin-2(S)-ylcarbonyl}pyrrolidin-2(S)-ylcarbonyl]pyrazole [Example 35]”, the concentration for half-maximal inhibition (IC50) under setting [2] was 46.0 ng/mL.
Molecule `O=C(c1nc2ccccc2s1)[C@@H]1CCCN1C(=O)[C@@H]1Cc2ccccc2N1C(=O)CCCc1ccccc1` [Example 19, 2-[1-{1-(4-Phenylbutanoyl)indolin-2(S)-ylcarbonyl}pyrrolidin-2(S)-ylcarbonyl]benzothiazole] had an IC50 of 5.44 nM.
`O=C(c1nccs1)[C@@H]1CCCN1C(=O)[C@@H]1CCCN1C(=O)CCCc1ccccc1` [Example 5, 2-[1-{1(4-Phenylbutanoyl)pyrrolidin-2(S)-ylcarbonyl}pyrrolidin-2(S)-ylcarbonyl]thiazole]: the IC50 under setting [2] amounted to 1.33 ng/mL.
Take `O=C(CSCc1ccccc1)C1CCCCC1C(=O)N1CCC[C@H]1C(=O)c1nccs1` (stereo partly drawn) [Example 16, 2-[1-(2-Benzylthioacetylcyclohexan-1-ylcarbonyl)pyrrolidin-2(S)-ylcarbonyl]thiazole]: half-maximal inhibition (IC50) required 53.7 nM.
`O=C(c1nccs1)[C@@H]1CCCN1C(=O)[C@@H]1Cc2ccccc2N1C(=O)CCCc1ccccc1` [Example 9, 2-[1-{1-(4-Phenylbutanoyl)indolin-2(S)-ylcarbonyl}pyrrolidin-2(S)-ylcarbonyl]thiazole] gave a half-inhibitory concentration (IC50) of 5.49 nM.
`O=C(c1nc2ccccc2s1)[C@@H]1CCCN1C(=O)[C@@H]1C[C@@H](Sc2ccccc2)CN1C(=O)OCc1ccccc1` [Example 20, 2-{1-(1-Benzyloxycarbonyl-4(R)-phenylthiopyrrolidin-2(S)-ylcarbonyl)pyrrolidin-2(S)-ylcarbonyl}benzothiazole] showed an IC50 of 2.45 nM.
Molecule `O=C(c1nccs1)[C@@H]1CCCN1C(=O)[C@@H]1C[C@@H](Sc2ccccc2)CN1C(=O)OCc1ccccc1` [Example 2, 2-[1-{1-Benzyloxycarbonyl-4(R)-phenylthiopyrrolidin-2(S)-ylcarbonyl}pyrrolidin-2(S)-ylcarbonyl]thiazole] had an IC50 of 4.79 nM.
`O=C(c1nc2ncccc2o1)[C@@H]1CCCN1C(=O)[C@@H]1CCCN1C(=O)CCCc1ccccc1` [Example 37, 2-[1 -{1-(4-Phenylbutanoyl)pyrrolidin-2(S)-ylcarbonyl}pyrrolidin-2(S)-ylcarbonyl]oxazolo[4,5-b]pyridine]: the IC50 was 4.78 nM.
Consider `O=C(c1nc2ccccc2s1)[C@@H]1CCCN1C(=O)[C@@H]1C[C@@H](Sc2ccccc2)CN1C(=O)CCCc1ccccc1` [Example 21, 2-[1-{1-(4-Phenylbutanoyl)-4(R)-phenylthiopyrrolidin-2(S)-ylcarbonyl}pyrrolidin-2(S)-ylcarbonyl]benzothiazole], for which the midpoint of inhibition, the IC50, lay at 1.8 nM.
Under setting [2], `O=C(CSCc1ccccc1)C1CCCC1C(=O)N1CCC[C@H]1C(=O)c1nccs1` (stereo partly drawn) [Example 15, 2-[1-{2-Benzylthioacetylcyclopentan-1-ylcarbonyl)pyrrolidin-2(S)-ylcarbonyl}thiazole] had a half-inhibitory concentration (IC50) of 54.2 nM.
As to `O=C(c1nc2ccccc2s1)[C@@H]1CCCN1C(=O)[C@@H]1Cc2ccccc2N1C(=O)OCc1ccccc1` [Example 18, 2-{1-(1-Benzyloxycarbonylindolin-2(S)-ylcarbonyl)pyrrolidin-2(S)-ylcarbonyl}benzothiazole], the IC50 was 7.33 nM.
Still for that read-out and setting: the same measure for `O=C(CSCc1ccccc1)C1CCCCC1C(=O)N1CCC[C@H]1C(=O)c1nc2ccccc2s1` (stereo partly drawn) [Example 22, 2-[1-(2-Benzylthioacetylcyclohexan-1-ylcarbonyl)pyrrolidin-2(S)-ylcarbonyl]benzothiazole]: 12.6 nM.
“2-[1-{1-(4-Phenylbutanoyl)indolin-2(S)-ylcarbonyl}pyrrolidin-2(S)-ylcarbonyl]oxazole [Example 24]” returned a half-inhibitory concentration (IC50) under setting [2] of 5.50 ng/mL.
Consider `O=C(c1nc2ccccc2s1)[C@@H]1CCCN1C(=O)[C@@H]1CCCN1C(=O)OCc1ccccc1` [Example 17, 2-{1-(1-Benzyloxycarbonylpyrrolidin-2(S)-ylcarbonyl)pyrrolidin-2(S)-ylcarbonyl}benzothiazole], for which the IC50 was 3.78 nM.
As to `O=C(c1ccccn1)[C@@H]1CCCN1C(=O)[C@@H]1CCCN1C(=O)CCCc1ccccc1` [Example 32, 2-[1-{1-(4-Phenylbutanoyl)pyrrolidin-2(S)-ylcarbonyl}pyrrolidin-2(S)-ylcarbonyl]pyridine], the IC50 is 7.15 nM.
As to `O=C(c1nccs1)[C@@H]1CCCN1C(=O)[C@@H]1CCCN1C(=O)OCc1ccccc1` [Example 4, 2-{1-(1-Benzyloxycarbonylpyrrolidin-2(S)-ylcarbonyl)pyrrolidin-2(S)-ylcarbonyl}thiazole], inhibition was half-maximal at 5.8 nM (IC50).
As for `COc1nccnc1C(=O)[C@@H]1CCCN1C(=O)[C@@H]1CCCN1C(=O)CCCc1ccccc1` [Example 40, 2-Methoxy-3-[1-{1-(4-phenylbutanoyl)pyrrolidine-2(S)-ylcarbonyl}pyrrolidin-2(S)-ylcarbonyl]pyrazine], the IC50 is 33.3 nM.
Same read-out and setting: the value for `O=C(c1nc2ccccc2o1)[C@@H]1CCCN1C(=O)[C@@H]1CCCN1C(=O)CCCc1ccccc1` [Example 36, 2-[1-{1-(4-Phenylbutanoyl)pyrrolidin-2(S)-ylcarbonyl}pyrrolidin-2(S)-ylcarbonyl]benzoxazole] was 4.13 nM; that for `O=C(c1nc2ccccc2[nH]1)[C@@H]1CCCN1C(=O)[C@@H]1CCCN1C(=O)OCc1ccccc1` [Example 39] was 7.61 nM.
In the case of `O=C(c1cccs1)[C@@H]1CCCN1C(=O)[C@@H]1CCCN1C(=O)OCc1ccccc1` [Example 25], under setting [1], the IC50 is 1380 nM.
